In ChEMBL document CHEMBL1201862, “PubChem BioAssay data set” (2004):
Activity calls are given as the source filed them.

Legend:
[1] = biological target: T1, Rac GTPase-activating protein 1 (Homo sapiens, UniProt Q9H0H5); experiment: blockers of MgcRacGAP-driven Rac1 GTP hydrolysis – biochemical, ADP Hunter fluorescence, primary and confirmatory, confirmation (AID 624330); format: functional
T1 sequence (Q9H0H5 whole entry): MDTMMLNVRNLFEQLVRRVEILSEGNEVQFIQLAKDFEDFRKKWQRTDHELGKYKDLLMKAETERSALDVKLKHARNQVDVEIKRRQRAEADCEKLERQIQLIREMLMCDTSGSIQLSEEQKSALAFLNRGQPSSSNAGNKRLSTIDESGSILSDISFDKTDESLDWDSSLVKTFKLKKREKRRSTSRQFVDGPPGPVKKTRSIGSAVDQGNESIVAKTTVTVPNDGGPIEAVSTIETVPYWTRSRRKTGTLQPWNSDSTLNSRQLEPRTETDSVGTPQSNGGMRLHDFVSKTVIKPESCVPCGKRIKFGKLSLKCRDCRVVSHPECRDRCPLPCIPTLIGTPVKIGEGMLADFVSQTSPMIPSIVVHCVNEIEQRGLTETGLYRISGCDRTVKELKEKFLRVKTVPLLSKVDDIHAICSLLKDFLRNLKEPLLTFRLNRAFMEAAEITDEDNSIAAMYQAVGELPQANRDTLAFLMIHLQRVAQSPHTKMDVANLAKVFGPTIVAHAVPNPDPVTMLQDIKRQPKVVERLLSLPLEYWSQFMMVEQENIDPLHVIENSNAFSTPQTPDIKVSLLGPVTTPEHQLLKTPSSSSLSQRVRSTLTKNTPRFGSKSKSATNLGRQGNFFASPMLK

[2] = biological target: T2, Oxysterols receptor LXR-beta (Homo sapiens, UniProt P55055); experiment: LXR agonists, Gal4 luciferase reporter, dose response, counter-screen for ssDAF-12 agonist project, cell-based, luminescence, HEK293, S. stercoralis campaign (AID 720737); format: functional; settings: read-out: IC50 (the source's name)
T2 sequence (P55055 whole entry): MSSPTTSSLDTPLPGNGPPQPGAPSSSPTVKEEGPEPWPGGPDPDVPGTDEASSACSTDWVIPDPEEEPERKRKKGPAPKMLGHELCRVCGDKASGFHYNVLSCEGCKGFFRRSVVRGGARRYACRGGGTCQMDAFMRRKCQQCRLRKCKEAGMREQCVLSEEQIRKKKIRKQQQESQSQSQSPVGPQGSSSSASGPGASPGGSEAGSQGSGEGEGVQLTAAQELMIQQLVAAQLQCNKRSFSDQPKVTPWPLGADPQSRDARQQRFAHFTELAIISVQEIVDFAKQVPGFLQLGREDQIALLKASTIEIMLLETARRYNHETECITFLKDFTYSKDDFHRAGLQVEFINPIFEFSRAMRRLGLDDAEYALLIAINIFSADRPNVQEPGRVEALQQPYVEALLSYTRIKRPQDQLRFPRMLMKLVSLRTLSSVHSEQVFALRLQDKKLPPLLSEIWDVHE

[3] = viability loss in HeLa cells – cytotoxicity control for MgcRacGAP inhibitor project, dose response (AID 624300); format: functional
[4] = protection from phage-mediated lysis, alamar blue read-out – E. coli UTI89, K1F phage, bacterial capsule biogenesis inhibitors (AID 488966); format: functional
[5] = Luminescence-based cell-based high throughput dose response assay to identify activators of the DAF-12 from the parasite S. stercoralis (ssDAF-12).; format: functional
ORF 73 = biological target: T3, ORF 73 (Human herpesvirus 8, UniProt O40947); experiment: KSHV LANA DNA-binding disruption – biochemical, fluorescence polarization, cherry-picked samples, dose response (AID 504725); set-up: species or system Human gammaherpesvirus 8;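 further: fluorescence polarization of a labeled DNA duplex reporting LANA DNA binding; potency is for inhibitors that block LANA binding to the DNA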
T3 sequence (O40947 whole entry): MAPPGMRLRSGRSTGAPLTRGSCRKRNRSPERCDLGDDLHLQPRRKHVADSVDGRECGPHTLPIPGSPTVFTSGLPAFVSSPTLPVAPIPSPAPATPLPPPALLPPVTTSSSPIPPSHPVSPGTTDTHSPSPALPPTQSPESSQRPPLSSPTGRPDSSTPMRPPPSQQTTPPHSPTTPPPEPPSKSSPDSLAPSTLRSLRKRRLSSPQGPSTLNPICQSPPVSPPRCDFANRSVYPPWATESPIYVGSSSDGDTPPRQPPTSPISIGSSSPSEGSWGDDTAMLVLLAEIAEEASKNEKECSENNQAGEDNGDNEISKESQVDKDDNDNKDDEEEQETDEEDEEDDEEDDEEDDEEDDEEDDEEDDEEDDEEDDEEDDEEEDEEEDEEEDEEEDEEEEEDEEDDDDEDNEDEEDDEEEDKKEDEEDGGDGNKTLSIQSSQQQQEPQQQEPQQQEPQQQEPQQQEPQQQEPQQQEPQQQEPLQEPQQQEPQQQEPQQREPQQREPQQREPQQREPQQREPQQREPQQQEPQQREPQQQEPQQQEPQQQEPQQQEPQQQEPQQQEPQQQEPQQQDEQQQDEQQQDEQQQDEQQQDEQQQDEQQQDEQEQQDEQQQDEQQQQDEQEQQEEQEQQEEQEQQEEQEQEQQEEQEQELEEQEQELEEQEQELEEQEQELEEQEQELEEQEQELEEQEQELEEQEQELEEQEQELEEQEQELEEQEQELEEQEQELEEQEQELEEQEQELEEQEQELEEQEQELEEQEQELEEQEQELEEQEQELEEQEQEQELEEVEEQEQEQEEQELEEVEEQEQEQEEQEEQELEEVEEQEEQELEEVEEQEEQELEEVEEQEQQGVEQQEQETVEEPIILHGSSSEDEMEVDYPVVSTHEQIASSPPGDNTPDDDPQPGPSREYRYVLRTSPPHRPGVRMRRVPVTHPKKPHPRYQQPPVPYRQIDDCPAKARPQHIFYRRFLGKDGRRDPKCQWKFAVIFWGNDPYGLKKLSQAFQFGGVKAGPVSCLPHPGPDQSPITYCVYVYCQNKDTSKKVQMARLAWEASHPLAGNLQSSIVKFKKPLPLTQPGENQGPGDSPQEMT

HeLa = experiment: viability loss in HeLa cells – cell-based, 24 h, cherry-picked samples, cytotoxicity control, dose response (AID 504726); format: functional; settings: Homo sapiens;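 further: potency for cytotoxicity as loss of luminescence signal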
[6] = non-PhoP GFP expression and growth suppression – purified and synthesized compounds, set 2, counter-screen for PhoP regulon inhibitor project, dose response (AID 2834); format: functional
[7] = biological target: Potassium voltage-gated channel subfamily KQT member 2 (Rattus norvegicus, UniProt O88943); experiment: potentiation of rat KCNQ2 current – cell-based, retigabine-insensitive compounds, dose response (AID 2654); format: functional
Vero [8] = experiment: mammalian cell viability reduction – secondary assay, cytotoxicity control for West Nile virus antiviral project, dose response (AID 1650); format: functional; settings: Chlorocebus sabaeus
[9] = NIH-3T3 fibroblast cytotoxicity, dose response, cytotoxicity control, cell-based, fluorescence, Alamar Blue, secondary assay (AID 2327); format: functional;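 further: NIH-3T3 mouse fibroblasts cultured with fluconazole at 8 µg/mL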
H4 = experiment: Luminescence Cell-Based Dose Response HTS to Identify Activators of 5'UTR Stem-Loop Driven Prion Protein mRNA Translation in H4 Neuroglioblastoma Cells. [Related pubchem assays: 1829 (Project Summary), 1814 (Primary HTS)]; format: functional; settings: Homo sapiens
Jurkat = experiment: blockers of NF-kB activation in T cells – Jurkat, luciferase reporter, luminescence, B- and T-cell, dose response (AID 489004); format: functional, cell-based; settings: Homo sapiens;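 further: NF-kB luciferase reporter Jurkat cells stimulated with PMA plus ionomycin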
BJ [10] = experiment: BJ-TERT fibroblast viability loss – cell-based, RAS-independent, luminescence, dose response (AID 1933); format: functional; settings: Homo sapiens
[11] = non-specific 3'UTR reporter inhibition in Clone20-Shn3RL – cell-based, Renilla luciferase, cherry-picked, counter-screen for Shn3 inhibitor project, dose response (AID 624133); format: functional
[12] = fluconazole-exposed Candida albicans growth modulators – fluorescence, retest, confirmation (AID 2467); format: functional, cell-based
[13] = HEK-293T viability loss, compound-treated – cell-based, uHTS hits, cytotoxicity control for B/T-cell NF-kB inhibitor project, dose response (AID 489019); format: functional;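 further: IC50 reflects cytotoxicity as loss of cell viability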
[14] = biological target: NACHT, LRR and PYD domains-containing protein 3 (Homo sapiens, UniProt Q96P20); experiment: NALP3 inhibitors in yeast, dose response, luminescent (AID 488799); format: functional
Vero [15] = experiment: cells; format: functional; settings: Chlorocebus sabaeus
[16] = reduction of Shn3 3'UTR-driven luciferase in osteoblasts – cell-based, Clone20 osteoblasts, firefly luciferase, cherry-picked, dose response (AID 624132); format: functional;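 further: firefly luciferase luminescence from reporter carrying the Shn3 3'UTR in osteoblasts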
BJ [17] = experiment: BJ-TERT-LT-ST fibroblast viability loss – cell-based, RAS-independent, luminescence, dose response (AID 1935); format: functional; settings: Homo sapiens;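 further: BJ fibroblasts immortalized with TERT plus LT and ST oncogenes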
[18] = DRD fibroblast viability loss – cell-based, non-viral oncogenic, luminescence, dose response (AID 1934); format: functional; settings: Homo sapiens
[19] = loss of viability in HepG2 cells – cell-based, CellTiter-Glo, cherry-picked, cytotoxicity control for Shn3 inhibitor project, dose response (AID 624134); format: functional
BJ [20] = experiment: cells; format: functional, cell-based; settings: Homo sapiens
[21] = biological target: T4, Serine/threonine-protein phosphatase (Candida dubliniensis (strain CD36 / CBS 7987 / NCPF 3949 / NRRLY-17841) (Yeast), UniProt B9W6M3); experiment: blockers of CaCl2-induced CDRE-lacZ signaling – S. cerevisiae, luminescence, secondary, dose response (AID 2388); format: functional, cell-based;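 further: yeast reporter cells carrying a calcineurin-responsive lacZ construct stimulated with calcium chloride; luminescent beta-galactosidase reporter signal in whole cells rather than isolated phosphatase activity; potency for inhibition where a drop in reporter signal means calcineurin blockade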
T4 sequence (B9W6M3 whole entry): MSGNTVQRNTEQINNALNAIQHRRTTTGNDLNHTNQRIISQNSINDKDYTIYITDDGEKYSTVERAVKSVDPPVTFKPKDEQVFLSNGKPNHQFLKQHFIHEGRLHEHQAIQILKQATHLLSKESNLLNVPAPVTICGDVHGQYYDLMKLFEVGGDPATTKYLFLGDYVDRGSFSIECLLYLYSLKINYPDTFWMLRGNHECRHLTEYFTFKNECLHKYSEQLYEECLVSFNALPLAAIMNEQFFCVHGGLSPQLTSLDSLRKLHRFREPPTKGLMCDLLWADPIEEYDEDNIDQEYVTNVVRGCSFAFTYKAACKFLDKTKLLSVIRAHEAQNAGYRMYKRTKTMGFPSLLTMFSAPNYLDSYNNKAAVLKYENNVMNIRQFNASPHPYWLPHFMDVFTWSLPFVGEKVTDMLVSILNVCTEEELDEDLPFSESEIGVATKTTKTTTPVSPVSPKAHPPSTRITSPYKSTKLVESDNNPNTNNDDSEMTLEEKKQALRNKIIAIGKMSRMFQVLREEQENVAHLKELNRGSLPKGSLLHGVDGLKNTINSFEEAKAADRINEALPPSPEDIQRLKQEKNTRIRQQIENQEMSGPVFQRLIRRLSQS

Chain of NACHT, LRR and PYD domains-containing protein 3 (Q96P20 whole entry, the tested form may be a part): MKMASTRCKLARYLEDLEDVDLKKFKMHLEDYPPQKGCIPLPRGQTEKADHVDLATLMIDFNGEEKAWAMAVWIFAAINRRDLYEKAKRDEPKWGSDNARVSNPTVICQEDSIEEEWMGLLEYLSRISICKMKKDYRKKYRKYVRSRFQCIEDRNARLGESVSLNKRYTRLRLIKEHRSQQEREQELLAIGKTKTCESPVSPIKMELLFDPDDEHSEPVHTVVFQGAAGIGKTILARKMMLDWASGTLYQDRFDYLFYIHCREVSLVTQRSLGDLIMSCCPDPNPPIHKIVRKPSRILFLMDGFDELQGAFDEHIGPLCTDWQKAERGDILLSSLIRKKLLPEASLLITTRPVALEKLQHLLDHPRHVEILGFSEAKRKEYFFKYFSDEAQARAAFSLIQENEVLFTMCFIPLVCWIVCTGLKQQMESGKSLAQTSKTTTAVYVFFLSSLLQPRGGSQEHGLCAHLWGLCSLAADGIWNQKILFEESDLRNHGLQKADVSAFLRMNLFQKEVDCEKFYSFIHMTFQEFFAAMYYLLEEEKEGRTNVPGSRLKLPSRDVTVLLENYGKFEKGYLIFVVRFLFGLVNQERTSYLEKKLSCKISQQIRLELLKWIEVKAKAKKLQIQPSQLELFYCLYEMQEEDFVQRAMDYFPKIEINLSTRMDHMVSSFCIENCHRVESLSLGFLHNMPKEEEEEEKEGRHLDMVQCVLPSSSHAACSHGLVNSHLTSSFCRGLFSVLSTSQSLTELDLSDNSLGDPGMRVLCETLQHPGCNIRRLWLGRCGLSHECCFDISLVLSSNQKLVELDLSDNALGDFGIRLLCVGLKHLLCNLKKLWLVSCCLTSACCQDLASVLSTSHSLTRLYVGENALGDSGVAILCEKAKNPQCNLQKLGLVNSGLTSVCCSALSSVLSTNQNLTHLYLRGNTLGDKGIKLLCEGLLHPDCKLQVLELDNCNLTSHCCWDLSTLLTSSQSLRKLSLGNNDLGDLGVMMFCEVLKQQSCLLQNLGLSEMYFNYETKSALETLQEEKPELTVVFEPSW
Chain of Potassium voltage-gated channel subfamily KQT member 2 (O88943 whole entry): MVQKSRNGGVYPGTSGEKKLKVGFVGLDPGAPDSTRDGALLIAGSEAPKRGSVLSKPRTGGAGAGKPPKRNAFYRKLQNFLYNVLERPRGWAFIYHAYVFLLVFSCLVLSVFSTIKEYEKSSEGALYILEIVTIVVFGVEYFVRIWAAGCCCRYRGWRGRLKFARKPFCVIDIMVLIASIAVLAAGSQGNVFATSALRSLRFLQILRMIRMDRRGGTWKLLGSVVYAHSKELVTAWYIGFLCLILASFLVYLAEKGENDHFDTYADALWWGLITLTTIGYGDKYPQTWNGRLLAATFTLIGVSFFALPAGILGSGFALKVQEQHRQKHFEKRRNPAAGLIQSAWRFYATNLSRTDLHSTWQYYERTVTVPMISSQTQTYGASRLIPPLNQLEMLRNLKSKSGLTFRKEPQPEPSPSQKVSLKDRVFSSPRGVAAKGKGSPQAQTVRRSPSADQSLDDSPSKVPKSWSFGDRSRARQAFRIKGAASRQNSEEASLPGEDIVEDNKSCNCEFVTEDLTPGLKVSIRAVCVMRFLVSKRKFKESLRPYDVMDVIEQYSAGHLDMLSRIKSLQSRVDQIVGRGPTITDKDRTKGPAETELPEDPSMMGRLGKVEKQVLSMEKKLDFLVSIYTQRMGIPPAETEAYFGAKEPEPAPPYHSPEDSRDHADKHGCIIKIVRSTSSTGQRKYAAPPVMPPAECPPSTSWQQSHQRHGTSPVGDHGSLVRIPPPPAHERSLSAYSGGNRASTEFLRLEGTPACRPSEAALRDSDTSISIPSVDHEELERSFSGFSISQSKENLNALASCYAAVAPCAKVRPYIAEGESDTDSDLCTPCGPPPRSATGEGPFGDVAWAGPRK

CNc1c2cccc(C)c2nc2c(C(=O)NCCN(C)C)cccc12
IC50 [1]: 34.6 µM (active) | EC50 [2]: > 67.5 µM (inactive) | CC50 [3]: 3.39 µM (active) | IC50 [4]: > 150 µM (active) | IC50 [5]: > 67.5 µM (inactive) | AC50 (ORF 73): 5.35 µM (active) | AC50 (HeLa): 1.01 µM (active)

O=C1C2=C(Nc3ccccc3SC2c2ccc(I)cc2)c2ccccc21 (stereo not given)
IC50 [6]: 232 µM (active)

O=C(Nc1ccc(Br)nc1)Nc1cccc(F)c1
EC50 [7]: 4.04 µM (active)

C[C@@H]1C[C@@H]2O[C@H]2/C=C\C=C\C(=O)Cc2c(Cl)c(O)cc(O)c2C(=O)O1
CC50 (Vero [8]): 3.11 µM (active) | EC50 [9]: 44.5 µM (inconclusive) | EC50 (H4): > 120 µM (not active) | IC50 (Jurkat): 0.21 µM (active) | EC50 (BJ [10]): 21 µM (active) | AC50 [11]: 12.3 µM (active) | EC50 [12]: 0.049 µM (active) | IC50 [13]: > 80 µM (inactive) | IC50 [14]: 8.41 µM (active) | CC50 (Vero [15]): 15.8 µM (active) | AC50 [16]: 6.4 µM (active) | EC50 (BJ [17]): 1.81 µM (active) | EC50 [18]: 2.08 µM (active) | AC50 [19]: 49.8 µM (active) | EC50 (BJ [20]): 0.309 µM (active) | EC50 [21]: > 180 µM (inactive)
